# Measurements from patent publication US10874631B2, “Altertoxin II as a selective inhibitor of Ewing family of tumor cells” (priority 2016, dated 2020).
# Experiments:
# Ewing sarcoma cell lines = assay: alamar blue panel, selectivity Ewing sarcoma vs rhabdomyosarcoma cell lines; assay type: cell-based; settings: alamar blue assay, mean IC50; 6 Ewing sarcoma vs 6 rhabdomyosarcoma cell lines
# Protocol: FIG. 3A-3B. (A) The effects of altertoxin II were evaluated using the SRB assay in 6 Ewing sarcoma cell lines as compared to 4 other pediatric solid tumor cells lines. n≥3 independent experiments. […]
# The effects of altertoxin II were studied in a larger panel of cell lines and the GI50, the concentration that causes 50% inhibition of cell growth, and the TGI, the concentration that caused total growth inhibition, were determined using the sulforhodamine b (SRB assay). The mean GI50 values shown graphically in FIG. 3A. The IC50, the concentration that causes 50% inhibition of cell proliferation, values were determined in a second panel of Ewing sarcoma and rhabdomyosarcoma cell lines using the altar blue assay and these values are presented in Table 2 and the mean in […].
# [1] = system: A204 rhabdomyosarcoma cells; assay: PARP cleavage immunoblot (apoptosis); assay type: cell-based; settings: 100 nM and 1 μM, 18 hours
# Protocol: (§1) FIG. 4A-4B. Altertoxin II selectively induces PARP cleavage in EWS cell lines. Immunoblotting for total and cleaved PARP. (A) Two Ewing sarcoma (EWS) cell lines, RD-ES and SK-ES-1, were treated with 100 nM altertoxin II (ATX) for the indicated amounts of time. Whole-cell lysates were prepared and separated by SDS-PAGE. (B) The EWS cell line SK-ES-1 and rhabdomysosarcoma cell line A204 were treated with the indicated concentrations of ATX for 18 hours, lysed and separated by SDS-PAGE.
# (§2) The ability of altertoxin II to initiate cell death via apoptosis, as measured by PARP cleavage, was evaluated in two Ewing sarcoma cells lines, SK-ES-1 and RD-ES. […] A range of altertoxin II concentrations when then evaluated in SK-ES-1 Ewing sarcoma cells as compared to A204 rhabdomyosarcoma cells.
# RD-ES cells [2] = assay: PARP cleavage immunoblot (apoptosis); assay type: cell-based; settings: 100 nM
# Protocol: as §1, §2
# SK-ES-1 cells = assay: PARP cleavage immunoblot (apoptosis); assay type: cell-based
# Protocol: as §1, §2
# RD-ES cells [3] = assay: G1 arrest with CDK4/6 inhibitor and SRB concentration-response; assay type: cell-based; settings: RD-ES pre-treated with LSN2813542 (100 nM); SRB assay
# Protocol: FIG. 6. Concentration-response curves for altertoxin II (ATX) with and without pre-treatment with the CDK4/6 inhibitor LSN2813542 (100 nM) using the SRB assay, n=3.
# An experiment was designed to evaluate whether the effects of altertoxin II in Ewing sarcoma cells required cell cycle transition. RD-ES cells were arrested in the G1 phase of the cell cycle using the CDK4/6 inhibitor LSN2813542. LSN2813542 (100 nM) had no effect on RD-ES cell viability, but caused greater than 85% of the cells to arrest in G1 for at least 48 h. The arrested cells were then treated with altertoxin II and a concentration-response curve generated.
# A673 Ewing sarcoma cells = assay: γH2AX immunofluorescence / high-content imaging; assay type: cell-based
# Protocol: (§3) FIG. 7A-7B. Altertoxin II (ATXII) selectively induces γH2AX foci in A673 Ewing sarcoma cells. (A) A673 cells were treated for 24 h with 100 nM altertoxin II and serine 139 phosphorylation of γH2AX evaluated by indirect immunofluorescence techniques. (B) High-content imaging and image analysis were used to construct concentration-response curves for nuclear γH2AX intensity in A673 and Rh30 rhabdomyosarcoma cells after treatment with altertoxin II for 6 h.
# (§4) Studies were conducted to test whether altertoxin II initiates DNA damage in Ewing sarcoma cells because of the well-known sensitivity of these cells to DNA damage and prior reports of altertoxin II-induced DNA damage in other mammalian cells (Fleck, S. C. et al., Toxicol Lett, 214, 27-32, 2012). […] Consistent with these measures of DNA damage altertoxin II.
# [4] = system: Rh30 rhabdomyosarcoma cells; assay: γH2AX high-content imaging; assay type: cell-based
# Protocol: as §3, §4
# [5] = system: RD-ES Ewing sarcoma cells; assay: DNA damage response immunoblot (Chk1, Chk2, p53); assay type: cell-based
# Protocol: FIG. 9A-9B. Altertoxin II causes phosphorylation of CHK1 and 2 and p53 in Ewing sarcoma cells. Ewing sarcoma cells, A673, RD-ES, SK-ES-1, or rhabdomyosarcoma A204 cells were treated with altertoxin II at the concentrations indicated for 6 h (A) or 24 h (B) and whole-cell lysates prepared and proteins separated by SDS-PAGE. These samples were analyzed by immunoblotting for total and phosphorylated Chk1 and 2 and p53 (A).
# Downstream activation of DNA damage response proteins by altertoxin II was subsequently evaluated.
# Rh30 cells = assay: Conditioned media effect on cell growth, SRB assay; assay type: cell-based; settings: media from TC-32 cells treated with 100 nM for 6 h, vs media from Rh30 cells
# Protocol: FIG. 10. Effects of ATXII-conditioned media on Rh30 cell growth. TC-32 or Rh30 cells were treated with 100 nM ATXII for 6 h, the media added to Rh30 cells and cell growth determined with the SRB assay.
# (§5) An experiment was conducted to test this possibility. TC-32 Ewing sarcoma and Rh30 rhabdomyosarcoma cells were treated with 100 nM ATX for 6 h and the conditioned media was then applied to the resistant Rh30 cells. […] Differences in the altertoxin II concentration were measured by LC/MS in media from TC-32 and HepG2 hepatocellular carcinoma cells.
# [6] = system: HepG2 hepatocellular carcinoma cells; assay: Altertoxin II concentration in cell media by LC/MS; assay type: in vitro ADME; settings: after 2 h
# Protocol: as §5
# TC-32 cells = assay: Altertoxin II concentration in cell media by LC/MS; assay type: in vitro ADME; settings: TC-32 media, after 2 h
# Protocol: as §5
# [7] = system: A673 Ewing sarcoma murine xenograft; assay: A673 xenograft antitumor efficacy; assay type: in vivo, Mice
# Protocol: FIG. 11. Antitumor efficacy of ATXII against A673 xenograft model. Mice were injected i.p. with 20 mg/kg. ATXII on days 1, 3, 5, 8, 10 and 12, or 40 mg/kg on days 1, 3, and 5.
# Studies were conducted to evaluate the in vivo efficacy of altertoxin II in an A673 Ewing sarcoma murine xenograft model (FIG. 11). Mice bearing A673 xenograft tumors were treated with 20 mg/kg altertoxin II on days 1, 3, 5, 8 and 10, or with 40 mg/kg altertoxin II on days 1, 3 and 5.
compound,measurement,setting,value
O=C1CC[C@]2(O)c3c(ccc(O)c31)-c1ccc(O)c3c1[C@H]2[C@H]1O[C@H]1C3=O [altertoxin II],selectivity of Ewing sarcoma cell lines vs rhabdomyosarcoma cell lines,Ewing sarcoma cell lines,89 fold
same,apoptosis (PARP cleavage),[1],not the rhabdomyosarcoma cells
same,time to appearance of cleaved PARP,RD-ES cells [2],≤ 17 h
same,apoptosis (PARP cleavage),"SK-ES-1 cells; 100 nM and 1 μM, 18 hours",cause apoptosis
same,time to appearance of cleaved PARP,"SK-ES-1 cells; 100 nM, seen at 7 and 17 hours",≤ 7 h
same,increase in total growth inhibition concentration (TGI) after G1 arrest,RD-ES cells [3],28 fold
same,"nuclear γH2AX, high-content imaging","A673 Ewing sarcoma cells; 30 nM, 6 h",caused an increase in γH2AX
same,H2AX serine 139 phosphorylation (γH2AX),"A673 Ewing sarcoma cells; 100 nM, within 6 h",rapidly induced H2AX serine 139 phosphorylation
same,γH2AX foci,"[4]; 10 μM, 24 h exposure",did initiate γH2AX foci
same,γH2AX foci,"[4]; concentrations up to 1 μM, 6 or 24 h",no γH2AX foci were detected
same,phosphorylation of p53,[5],also observed in RD-ES cells
same,phosphorylation of Chk1 and Chk2,"[5]; 10-300 nM, within 6 h",caused phosphorylation of checkpoint kinase 1 and 2
same,activity of conditioned media against Rh30 cells,Rh30 cells,substantially higher activity
same,altertoxin II remaining in media,[6],no altertoxin II was detectable
same,altertoxin II remaining in media,TC-32 cells,approximately 25%
same,tumor growth,"[7]; 20 mg/kg i.p. days 1, 3, 5, 8 and 10",trend of modest tumor growth inhibition
same,tumor volume vs control on day 14,"[7]; 20 mg/kg, day 14",no statistically significant difference
same,tumor growth,"[7]; 40 mg/kg i.p. days 1, 3 and 5, 14-day trial",significant inhibition of tumor growth
same,tumor size vs control on day 14,"[7]; 40 mg/kg, day 14, p=0.0001",significantly smaller than control tumors
same,therapeutic window,[7]; A673 xenograft,acceptable therapeutic window
